Experimental data from the supplement of paper PMC10307832.

Experiments:
Test in all cases: relative viability (nuclei count vs DMSO), 5 days (fraction); higher = more cells survive
AZD8055 + Pictilisib = compound: COc1ccc(-c2ccc3c(N4CCOC[C@@H]4C)nc(N4CCOC[C@@H]4C)nc3n2)cc1CO [AZD8055] + CS(=O)(=O)N1CCN(Cc2cc3nc(-c4cccc5[nH]ncc45)nc(N4CCOCC4)c3s2)CC1 [Pictilisib] (partner 1 µM)
In short: (§1)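 Five library-drug doses in √10 steps were combined with a fixed anchor-drug dose, or a single drug was given alone, by pin tool to lung cancer cell lines in 1536-well plates the day after seeding. Nuclei were stained and counted after 5 days. Relative viability is the nuclei count in treated wells over that in vehicle wells, taken as the median of duplicate plates.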

AZD8055 + Linsitinib = compound: COc1ccc(-c2ccc3c(N4CCOC[C@@H]4C)nc(N4CCOC[C@@H]4C)nc3n2)cc1CO [AZD8055] + C[C@]1(O)C[C@@H](c2nc(-c3ccc4ccc(-c5ccccc5)nc4c3)c3c(N)nccn32)C1 [Linsitinib] (partner 1 µM)
In short: as §1

AZD8055 + Alpelisib = compound: COc1ccc(-c2ccc3c(N4CCOC[C@@H]4C)nc(N4CCOC[C@@H]4C)nc3n2)cc1CO [AZD8055] + Cc1nc(NC(=O)N2CCC[C@H]2C(N)=O)sc1-c1ccnc(C(C)(C)C(F)(F)F)c1 [Alpelisib] (partner 2 µM)
In short: as §1

AZD8055 + Decitabine = compound: COc1ccc(-c2ccc3c(N4CCOC[C@@H]4C)nc(N4CCOC[C@@H]4C)nc3n2)cc1CO [AZD8055] + Nc1ncn([C@H]2C[C@H](O)[C@@H](CO)O2)c(=O)n1 [Decitabine] (partner 2 µM)
In short: as §1

Cell Line | relative viability (AZD8055 + Pictilisib; first compound 0.01 µM) | relative viability (AZD8055 + Pictilisib; first compound 0.03162 µM) | relative viability (AZD8055 + Pictilisib; first compound 0.1 µM) | relative viability (AZD8055 + Pictilisib; first compound 0.3162 µM) | relative viability (AZD8055 + Pictilisib; first compound 1 µM) | relative viability (AZD8055 + Linsitinib; first compound 0.01 µM) | relative viability (AZD8055 + Linsitinib; first compound 0.03162 µM) | relative viability (AZD8055 + Linsitinib; first compound 0.1 µM) | relative viability (AZD8055 + Linsitinib; first compound 0.3162 µM) | relative viability (AZD8055 + Linsitinib; first compound 1 µM) | relative viability (AZD8055 + Alpelisib; first compound 0.01 µM) | relative viability (AZD8055 + Alpelisib; first compound 0.03162 µM) | relative viability (AZD8055 + Alpelisib; first compound 0.1 µM) | relative viability (AZD8055 + Alpelisib; first compound 0.3162 µM) | relative viability (AZD8055 + Alpelisib; first compound 1 µM) | relative viability (AZD8055 + Decitabine; first compound 0.01 µM) | relative viability (AZD8055 + Decitabine; first compound 0.03162 µM) | relative viability (AZD8055 + Decitabine; first compound 0.1 µM) | relative viability (AZD8055 + Decitabine; first compound 0.3162 µM) | relative viability (AZD8055 + Decitabine; first compound 1 µM)
PC-3 [JPC-3] | 0.616 | 0.81 | 0.645 | 0.633 | 0.381 | 0.992 | 0.972 | 0.882 | 0.673 | 0.461 | 1.17 | 1.06 | 0.972 | 0.555 | 0.47 | 0.902 | 0.912 | 0.797 | 0.758 | 0.614
NCI-H1944 | 0.323 | 0.302 | 0.278 | 0.275 | 0.287 | 1.13 | 0.843 | 0.693 | 0.477 | 0.335 | 0.716 | 0.63 | 0.543 | 0.366 | 0.25 | 0.429 | 0.349 | 0.402 | 0.319 | 0.226
HARA | 0.372 | 0.257 | 0.198 | 0.24 | 0.17 | 0.942 | 0.998 | 0.517 | 0.303 | 0.202 | 0.786 | 0.744 | 0.376 | 0.222 | 0.252 | – | 0.355 | 0.414 | 0.321 | 0.357
NCI-H2126 | 0.478 | 0.52 | 0.385 | 0.362 | 0.415 | 0.655 | 0.572 | 0.504 | 0.375 | 0.385 | 0.75 | 0.655 | 0.601 | 0.382 | 0.371 | 0.623 | 0.499 | 0.485 | 0.434 | 0.331
LXF-289 | 0.83 | 0.673 | 0.556 | 0.411 | 0.454 | 1 | 0.997 | 0.812 | 0.568 | 0.515 | 1.02 | 0.923 | 0.742 | 0.567 | 0.515 | 0.397 | 0.317 | 0.369 | 0.343 | 0.356
NCI-H460 | 0.338 | 0.295 | 0.262 | 0.226 | 0.264 | 0.555 | 0.213 | 0.206 | 0.0409 | 0.0438 | 0.314 | 0.195 | 0.148 | 0.0795 | 0.0574 | 0.573 | 0.352 | 0.353 | 0.246 | 0.13
NCI-H1395 | 0.587 | 0.535 | 0.636 | 0.478 | 0.425 | 1.1 | 0.828 | 0.708 | 0.553 | 0.522 | 1.09 | 0.809 | 0.691 | 0.612 | 0.504 | 0.767 | 0.585 | 0.615 | 0.419 | 0.506
NCI-H2009 | 0.762 | 0.441 | 0.561 | 0.343 | 0.333 | 1.17 | 1.1 | 0.891 | 0.692 | 0.374 | 1.14 | 1.03 | 0.931 | 0.583 | 0.401 | 0.376 | 0.451 | 0.376 | 0.305 | 0.268
